# According to article PMC9616048, “Thermal proteome profiling reveals Haemonchus orphan protein HCO_011565 as a target of the nematocidal small molecule UMW-868” (Frontiers in Pharmacology, 2022):
# How the values were obtained:
# [1] = system: H. contortus xL3 to L4 development; assay: High throughput screen, larval development and phenotype at 168 h; assay type: cell-based, Haemonchus contortus
# Procedure: Following the measurement of xL3 motility, plates were incubated again for 78 h (i.e., a total of 168 h) under the same conditions. Thereafter, 40 µl of 1% (v/v) iodine were added to individual wells, and worms examined using a light microscope (M80, Leica) at 60-times magnification to assess larval development, based on the presence/absence of a well-developed pharynx ([Sommerville, 1966]), and/or phenotypic alterations with respect to untreated xL3s.
# HCO_011565 = assay: Thermal proteome profiling (TPP); assay type: binding, Haemonchus contortus; settings: UMW-868 at 50 μM, xL3 protein extract, 37–67°C, versus PBS control
# From the text: (§1) TPP is an advanced, multiplexed mass-spectrometry method that allows the unbiased identification or detection of drug targets ([Savitski et al., 2014]; [Perrin et al., 2020]; [Mateus et al., 2022]); it relies on the thermostability of protein-drug interactions to identify potential target protein(s) through denaturation profiles (melting curves) upon heat treatment ([Childs et al., 2019]), and has proven capacity to specifically identify targets of anti-cancer drugs or drug candidates ([Savitski et al., 2014]; [Perrin et al., 2020]; [Mateus et al., 2022]). […] The protein concentration in the supernatant was measured using a BCA Protein Assay Kit (Thermo Fisher Scientific), adjusted to 2 mg/ml and divided into four 250 μl aliquots/replicates (each containing 500 μg protein). • (ii) Incubation with compound (UMW-868), and temperature profile: Of the four 250 µl aliquots of xL3 proteins, two (i.e., test-samples) were each incubated with an equal volume of compound (UMW-868 at 50 μM), and two (control-samples) with an equal volume of PBS (pH 7.0) for 30 min at 23°C. […]
# HCO_014287 = assay: Thermal proteome profiling (TPP); assay type: binding, Haemonchus contortus; settings: UMW-868 at 50 μM, xL3 protein extract, 37–67°C, versus PBS control
# From the text: as §1
# [2] = system: Caenorhabditis elegans young adults; assay: In vitro activity on C. elegans; assay type: cell-based
smiles,measurement,setting,value
"CCCc1ccc(-c2nc(-c3cccs3)no2)cc1 [UMW-868, 5-(4-propylphenyl)-3-(2-thienyl)-1,2,4-oxadiazole]",Abnormal phenotype detected at 168 h,[1]; 20 µM,"Cur, Evi"
same,inhibition at 20 µM,"[1]; Haemonchus contortus, development to L4",80 to 99%
same,thermostability of protein in presence of compound,HCO_011565,"highest, statistically significant thermostability"
same,thermostability of protein in presence of compound,HCO_014287,"highest, statistically significant thermostability"
same,motility reduction of C. elegans,"[2]; 10 µM, at 40 h",53.5%
same,IC50,"[2]; Caenorhabditis elegans, read-out: IC50 (C. elegans motility)",9.9 µM
